Converted amounts (≈) assume the structure as drawn.
Columns and labels:
A549 [1] = experiment: Cytotoxicity against human A549 cells after 1 hr; assay type: functional, cell-based; settings: A549, 1 h
A549 [2] = experiment: Cytotoxicity against human A549 cells after 1 hr compound washout; assay type: functional, cell-based; settings: A549, 1 h
SF-295 [3] = experiment: Cytotoxicity against human SF295 cells after 1 hr compound washout; assay type: functional, cell-based; settings: SF-295, 1 h
SF-295 [4] = experiment: Cytotoxicity against human SF295 cells after 48 hrs; assay type: functional, cell-based; settings: SF-295, 48 h
CCRF-CEM = experiment: Cytotoxicity against human CCRF-CEM cells; assay type: functional
RPMI-8226 = experiment: Cytotoxicity against human RPMI8226 cells; assay type: functional
A549 [5] = experiment: Cytotoxicity against human A549 cells; assay type: functional
EKVX = experiment: Cytotoxicity against human EKVX cells; assay type: functional
HOP-62 = experiment: Cytotoxicity against human HOP62 cells; assay type: functional
NCI-H226 = experiment: Cytotoxicity against human NCI-H226 cells; assay type: functional
NCI-H23 = experiment: Cytotoxicity against human NCI-H23 cells; assay type: functional
NCI-H322M = experiment: Cytotoxicity against human NCI-H322M cells; assay type: functional
NCI-H460 = experiment: Cytotoxicity against human NCI-H460 cells; assay type: functional
NCI-H522 = experiment: Cytotoxicity against human NCI-H522 cells; assay type: functional
COLO 205 = experiment: Cytotoxicity against human COLO205 cells; assay type: functional
HCT-116 = experiment: Cytotoxicity against human HCT116 cells; assay type: functional
HCT-15 = experiment: Cytotoxicity against human HCT15 cells; assay type: functional
HT-29 = experiment: Cytotoxicity against human HT-29 cells; assay type: functional
KM12 = experiment: Cytotoxicity against human KM12 cells; assay type: functional
SW-620 = experiment: Cytotoxicity against human SW620 cells; assay type: functional
SF-268 = experiment: Cytotoxicity against human SF268 cells; assay type: functional
SF-539 = experiment: Cytotoxicity against human SF539 cells; assay type: functional
SNB-19 = experiment: Cytotoxicity against human SNB19 cells; assay type: functional
LOX IMVI = experiment: Cytotoxicity against human LOXIMVI cells; assay type: functional
Malme-3M = experiment: Cytotoxicity against human MALME-3M cells; assay type: functional
M14 = experiment: Cytotoxicity against human M14 cells; assay type: functional
SK-MEL-28 = experiment: Cytotoxicity against human SK-MEL-28 cells; assay type: functional
SK-MEL-5 = experiment: Cytotoxicity against human SK-MEL-5 cells; assay type: functional
UACC-257 = experiment: Cytotoxicity against human UACC257 cells; assay type: functional
UACC-62 = experiment: Cytotoxicity against human UACC62 cells; assay type: functional
IGROV-1 = experiment: Cytotoxicity against human IGROV1 cells; assay type: functional
OVCAR-3 = experiment: Cytotoxicity against human OVCAR-3 cells; assay type: functional
OVCAR-8 = experiment: Cytotoxicity against human OVCAR8 cells; assay type: functional
A498 = experiment: Cytotoxicity against human A498 cells; assay type: functional
ACHN = experiment: Cytotoxicity against human ACHN cells; assay type: functional
RXF 393 = experiment: Cytotoxicity against human RXF393 cells; assay type: functional
SN12C = experiment: Cytotoxicity against human SN12C cells; assay type: functional
TK-10 = experiment: Cytotoxicity against human TK10 cells; assay type: functional
PC-3 = experiment: Cytotoxicity against human PC3 cells; assay type: functional
DU-145 = experiment: Cytotoxicity against human DU145 cells; assay type: functional
MDA-MB-231 = experiment: Cytotoxicity against human MDA-MB-231 cells; assay type: functional
[6] = Cytotoxicity against human Hs 578T cells; assay type: functional
MDA-MB-435 = experiment: Cytotoxicity against human MDA-MB-435 cells; assay type: functional
MDA-N = experiment: Cytotoxicity against human MDA-N cells; assay type: functional
BT-549 = experiment: Cytotoxicity against human BT549 cells; assay type: functional
T47D = experiment: Cytotoxicity against human T47D cells; assay type: functional
[7] = read-out: pLC50 (the source's name) (converted)

In the case of `CC(C)=CCC/C(C)=C/Cc1c(O)cc(/C=C/c2cc(O)c3c(c2)C[C@@H]2C(C)(C)[C@H](O)[C@H](O)C[C@@]2(C)O3)cc1O` [SCHWEINFURTHIN A], the IC50 (A549 [1]) is reported as 43 µg/mL (≈ 78.4 µM), the IC50 (A549 [2]) is reported as 20 µg/mL (≈ 36.4 µM) and the IC50 (SF-295 [3]) is reported as 0.06 µg/mL (≈ 0.109 µM). For the same compound, the IC50 (SF-295 [4]) was less than 0.01 ng/mL, the GI50 (CCRF-CEM) was 0.01 µM and the LC50 (CCRF-CEM) was 74.1 µM. It also gave a TGI (CCRF-CEM; read-out: pTGI (converted)) of 2.09 µM, a GI50 (RPMI-8226) of 0.01 µM and an LC50 (RPMI-8226) of 75.9 µM. The TGI (RPMI-8226; read-out: pTGI (converted)) was 0.0209 µM, the GI50 (A549 [5]) was 0.141 µM and the LC50 (concentration killing 50% of cells) (A549 [5]) was 40.7 µM. For the same compound, the TGI (A549 [5]; read-out: pTGI (converted)) was 14.1 µM, the GI50 (EKVX) was 0.158 µM and the LC50 (EKVX) was 43.7 µM. The TGI (EKVX; read-out: pTGI (converted)) was 15.1 µM, the GI50 (HOP-62) was 0.12 µM and the LC50 (HOP-62) was 40.7 µM. For the same compound, the TGI (HOP-62; read-out: pTGI (converted)) was 15.1 µM, the GI50 (NCI-H226) was 4.47 µM and the LC50 (NCI-H226) was 70.8 µM. It also gave a TGI (NCI-H226; read-out: pTGI (converted)) of 15.8 µM, a GI50 (NCI-H23) of 3.24 µM and an LC50 (NCI-H23) of 51.3 µM. For the same compound, the TGI (NCI-H23; read-out: pTGI (converted)) was 18.2 µM, the GI50 (NCI-H322M) was 6.17 µM and the LC50 (NCI-H322M) was 47.9 µM. It also gave a TGI (NCI-H322M; read-out: pTGI (converted)) of 20.9 µM, a GI50 (NCI-H460) of 0.0129 µM and an LC50 (NCI-H460) of 38.9 µM. For the same compound, the TGI (NCI-H460; read-out: pTGI (converted)) was 12 µM, the GI50 (NCI-H522) was 2.57 µM and the LC50 (NCI-H522) was 26.9 µM. For the same compound, the TGI (NCI-H522; read-out: pTGI (converted)) was 10 µM, the GI50 (COLO 205) was 1.1 µM and the LC50 (COLO 205) was 7.08 µM. For the same compound, the TGI (COLO 205; read-out: pTGI (converted)) was 2.82 µM, the GI50 (HCT-116) was 0.0525 µM and the LC50 (HCT-116) was 40.7 µM. For the same compound, the TGI (HCT-116; read-out: pTGI (converted)) was 14.1 µM, the GI50 (HCT-15) was 1.82 µM and the LC50 (HCT-15) was 25.7 µM. The TGI (HCT-15; read-out: pTGI (converted)) was 6.03 µM, the GI50 (HT-29) was 0.309 µM and the LC50 (HT-29) was 5.5 µM. It also gave a TGI (HT-29; read-out: pTGI (converted)) of 2.4 µM, a GI50 (KM12) of 1.51 µM and an LC50 (KM12) of 30.2 µM. It also gave a TGI (KM12; read-out: pTGI (converted)) of 14.1 µM, a GI50 (SW-620) of 0.257 µM and an LC50 (SW-620) of 44.7 µM. For the same compound, the TGI (SW-620; read-out: pTGI (converted)) was 18.2 µM, the GI50 (SF-268) was 2.4 µM and the LC50 (SF-268) was 74.1 µM. The TGI (SF-268; read-out: pTGI (converted)) was 20.9 µM, the GI50 (SF-539) was 0.01 µM and the LC50 (SF-539) was 8.13 µM. The TGI (SF-539; read-out: pTGI (converted)) was 1.7 µM, the GI50 (SNB-19) was 0.257 µM and the LC50 (SNB-19) was 49 µM. It also gave a TGI (SNB-19; read-out: pTGI (converted)) of 20 µM, a GI50 (LOX IMVI) of 0.038 µM and an LC50 (LOX IMVI) of 38.9 µM. It also gave a TGI (LOX IMVI; read-out: pTGI (converted)) of 17 µM, a GI50 (Malme-3M) of 4.27 µM and an LC50 (Malme-3M) of 53.7 µM. For the same compound, the TGI (Malme-3M; read-out: pTGI (converted)) was 20 µM, the GI50 (M14) was 0.0158 µM and the LC50 (M14) was 2.69 µM. For the same compound, the TGI (M14; read-out: pTGI (converted)) was 0.324 µM, the GI50 (SK-MEL-28) was 4.57 µM and the LC50 (SK-MEL-28) was 60.3 µM. It also gave a TGI (SK-MEL-28; read-out: pTGI (converted)) of 24 µM, a GI50 (SK-MEL-5) of 0.0912 µM and an LC50 (SK-MEL-5) of 12 µM. The TGI (SK-MEL-5; read-out: pTGI (converted)) was 2.82 µM, the GI50 (UACC-257) was 4.27 µM and the LC50 (UACC-257) was 43.7 µM. For the same compound, the TGI (UACC-257; read-out: pTGI (converted)) was 18.2 µM, the GI50 (UACC-62) was 0.11 µM and the LC50 (UACC-62) was 6.31 µM. It also gave a TGI (UACC-62; read-out: pTGI (converted)) of 1.82 µM, a GI50 (IGROV-1) of 1.29 µM and an LC50 (IGROV-1) of 34.7 µM. For the same compound, the TGI (IGROV-1; read-out: pTGI (converted)) was 11 µM, the GI50 (OVCAR-3) was 3.09 µM and the LC50 (OVCAR-3) was 21.9 µM. It also gave a TGI (OVCAR-3; read-out: pTGI (converted)) of 7.94 µM, a GI50 (OVCAR-8) of 5.13 µM and an LC50 (OVCAR-8) of 57.5 µM. The TGI (OVCAR-8; read-out: pTGI (converted)) was 20 µM, the GI50 (A498) was 4.17 µM and the LC50 (A498) was 61.7 µM. It also gave a TGI (A498; read-out: pTGI (converted)) of 22.9 µM, a GI50 (ACHN) of 2.09 µM and an LC50 (ACHN) of 39.8 µM. For the same compound, the TGI (ACHN; read-out: pTGI (converted)) was 15.8 µM, the GI50 (RXF 393) was 0.01 µM and the LC50 (RXF 393) was 55 µM. It also gave a TGI (RXF 393; read-out: pTGI (converted)) of 2.09 µM, a GI50 (SN12C) of 6.92 µM and an LC50 (SN12C) of 61.7 µM. For the same compound, the TGI (SN12C; read-out: pTGI (converted)) was 25.1 µM, the GI50 (TK-10) was 2.57 µM and the LC50 (TK-10) was 41.7 µM. For the same compound, the TGI (TK-10; read-out: pTGI (converted)) was 17 µM, the GI50 (PC-3) was 0.17 µM and the CC50 (PC-3; [7]) was 36.3 µM. The TGI (PC-3; read-out: pTGI (converted)) was 12.9 µM, the GI50 (DU-145) was 1.2 µM and the CC50 (DU-145; [7]) was 53.7 µM. It also gave a TGI (DU-145; read-out: pTGI (converted)) of 15.1 µM, a GI50 (MDA-MB-231) of 4.17 µM and a CC50 (MDA-MB-231; [7]) of 70.8 µM. The TGI (MDA-MB-231; read-out: pTGI (converted)) was 25.1 µM, the GI50 [6] was 0.01 µM and the CC50 [6, 7] was 87.1 µM. The TGI ([6]; read-out: pTGI (converted)) was 0.759 µM, the GI50 (MDA-MB-435) was 3.8 µM and the CC50 (MDA-MB-435; [7]) was 74.1 µM. It also gave a TGI (MDA-MB-435; read-out: pTGI (converted)) of 33.1 µM, a GI50 (MDA-N) of 2.82 µM and a CC50 (MDA-N; [7]) of 61.7 µM. For the same compound, the TGI (MDA-N; read-out: pTGI (converted)) was 25.7 µM, the GI50 (BT-549) was 12.9 µM and the CC50 (BT-549; [7]) was 74.1 µM. It also gave a TGI (BT-549; read-out: pTGI (converted)) of 32.4 µM, a GI50 (T47D) of 3.24 µM and a CC50 (T47D; [7]) of 97.7 µM. It also gave a TGI (T47D; read-out: pTGI (converted)) of 21.9 µM.

Source: ChEMBL document CHEMBL1151324, “Cytotoxic geranyl stilbenes from Macaranga schweinfurthii” (J Nat Prod, 1998)
